Experimental data reported in US11072630B2, “Fluorinated and alkylated bile acids” (Metselex, Inc., priority 2015, dated 2021).

Assays:
primary rat hepatocytes [1] = experiment: DCA-induced cytotoxicity, LDH release assay; conditions: for inhibition of DCA-induced LDH release: 100 μM bile acid, 50 μM DCA
Procedure: (§1) Primary rat hepatocytes were incubated with 100 μM UDCA, methylated UDCA, or no addition (control) for 12 h. Cells were then exposed to 50 μM DCA for 40 h before processing for cytotoxicity activity, including LDH (top), and adenylate kinase (middle) assays, and cell viability (bottom).
(§2) Briefly, rats were anesthetized with phenobarbital sodium (100 mg/kg body weight) injected into the peritoneal cavity. After administration of heparin (200 units/kg body weight) in the tail vein, the abdomen was opened and the portal vein exposed and cannulated. The liver was then perfused at 37° C. in situ with a calcium-free Hanks' Balanced Salt Solution (HBSS) for 10 min, and then with 0.05% collagenase type IV in calcium-present HBSS for another 10 min.
Hepatocyte suspensions were obtained by passing collagenase-digested livers through 125 μm gauze and washing cells in Complete William's E medium (William's E medium, Sigma-Aldrich Corp., St Louis, Mo., USA) supplemented with 26 mM sodium bicarbonate, 23 mM HEPES, 0.01 units/mL insulin, 2 mM L-glutamine, 10 nM dexamethasone, 100 units/mL penicillin, and 10% heat-inactivated fetal bovine serum (Invitrogen Corp., Carlsbad, Calif., USA). Viable primary rat hepatocytes were enriched by low-speed centrifugation at 200 g for 3 min. Cell viability was determined by trypan blue exclusion and was typically 80-85%. After isolation, hepatocytes were ressuspended in Complete William's E medium and plated on Primaria™ tissue culture dishes (BD Biosciences, San Jose, Calif., USA) at 5×10^4 cells/cm2.
Cells were maintained at 37° C. in a humidified atmosphere of 5% CO2 for 6 h, to allow attachment. […]
General cell death or cytotoxicity was evaluated using the lactate dehydrogenase (LDH) Cytotoxicity Detection KitPLUS (Roche Diagnostics GmbH, Mannheim, Germany), following the manufacturer's instructions. […] Finally, absorbance was measured at 490 nm, with 620 nm as reference, using a Bio-Rad model 680 microplate reader (Bio-Rad Laboratories, Hercules, Calif., USA).

primary rat hepatocytes [2] = experiment: Cytotoxicity of the bile acids alone in primary cultures of rat hepatocytes; conditions: bile acid alone
Text: MTS is bioreduced by cells into a formazan product that is soluble in tissue culture medium. […] The quantity of formazan product as measured by the amount of 490 nm absorbance is directly proportional to the number of living cells in culture.

primary rat hepatocytes [3] = experiment: Cell viability with the bile acids alone in primary cultures of rat hepatocytes; type: cell-based; conditions: bile acid alone
Procedure: as §2
Hepatocyte suspensions were obtained by passing collagenase-digested livers through 125 μm gauze and washing cells in Complete William's E medium (William's E medium, Sigma-Aldrich Corp., St Louis, Mo., USA) supplemented with 26 mM sodium bicarbonate, 23 mM HEPES, 0.01 units/mL insulin, 2 mM L-glutamine, 10 nM dexamethasone, 100 units/mL penicillin, and 10% heat-inactivated fetal bovine serum (Invitrogen Corp., Carlsbad, Calif., USA). Viable primary rat hepatocytes were enriched by low-speed centrifugation at 200 g for 3 min. Cell viability was determined by trypan blue exclusion and was typically 80-85%. […]
General cell death was also determined using a bioluminescent cytolysis assay, designed to measure the release of adenylate kinase (AK) enzyme from damaged cells (ToxiLight™ BioAssay Kit, Lonza). […] The absorbance of the formazan at 490 nm can be measured directly from 96-well assay plates without additional processing. […]

primary rat hepatocytes [4] = experiment: DCA-induced cytotoxicity, adenylate kinase release (ToxiLight Assay); type: cell-based; conditions: 100 μM bile acid, cells exposed to 50 μM DCA
Procedure: as §1
(§3) Briefly, rats were anesthetized with phenobarbital sodium (100 mg/kg body weight) injected into the peritoneal cavity. After administration of heparin (200 units/kg body weight) in the tail vein, the abdomen was opened and the portal vein exposed and cannulated. […]
(§4) Hepatocyte suspensions were obtained by passing collagenase-digested livers through 125 μm gauze and washing cells in Complete William's E medium (William's E medium, Sigma-Aldrich Corp., St Louis, Mo., USA) supplemented with 26 mM sodium bicarbonate, 23 mM HEPES, 0.01 units/mL insulin, 2 mM L-glutamine, 10 nM dexamethasone, 100 units/mL penicillin, and 10% heat-inactivated fetal bovine serum (Invitrogen Corp., Carlsbad, Calif., USA). […] Cell viability was determined by trypan blue exclusion and was typically 80-85%. […]
(§5) General cell death was also determined using a bioluminescent cytolysis assay, designed to measure the release of adenylate kinase (AK) enzyme from damaged cells (ToxiLight™ BioAssay Kit, Lonza). […]

primary rat hepatocytes [5] = experiment: DCA-induced loss of cell viability (CellTiter-Fluor Cell Viability Assay); type: cell-based; conditions: pretreatment with 100 μM bile acid, 50 μM DCA
Procedure: as §1, §3, §4, §5

primary rat hepatocytes [6] = experiment: TGF-β1-induced loss of cell viability (MTS activity); type: cell-based; conditions: 100 μM for 12 h, then 1 nM TGF-β1 for 36 h
Procedure: FIG. 5. […] Primary rat hepatocytes were pre-incubated with 100 μM methylated UDCA, or no addition (control) for 12 h. Cells were then exposed to 1 nM TGF-β1 for 36 h before processing for MTS activity.

Structure (SMILES)	inhibition of DCA-induced LDH release (primary rat hepatocytes [1])	cytotoxicity (primary rat hepatocytes [2]; 200 and 400 μM concentrations)	cytotoxicity (primary rat hepatocytes [2]; concentrations up to 100 μM)	cell viability (primary rat hepatocytes [3]; from 10 to 100 μM concentrations)	viability (primary rat hepatocytes [3]; highest bile acid concentrations (200 and 400 μM))	protection against DCA-induced adenylate kinase release (ToxiLight Assay) (primary rat hepatocytes [4])	rescue of cell viability in cells exposed to DCA (primary rat hepatocytes [5])	inhibition of TGF-β1-induced reduction in MTT metabolism / loss of cell viability (primary rat hepatocytes [6])	inhibition of TGF-β1-induced reduction in MTT metabolism / loss of cell viability (primary rat hepatocytes [6]; listed as Methylated UDCA)	prevention of DCA-induced cytotoxicity (FIG. 4 legend) (primary rat hepatocytes [1]; 100 μM for 12 h, then 50 μM DCA for 40 h, LDH and adenylate kinase assays)
C[C@H](CCC(=O)O)[C@H]1CC[C@H]2[C@@H]3[C@@H](O)C[C@@H]4C[C@H](O)CC[C@]4(C)[C@H]3CC[C@]12C [UDCA, ursodeoxycholic acid, reference compound]	~70%									
CO[C@H]1C[C@@H]2C[C@H](O)CC[C@]2(C)[C@H]2CC[C@]3(C)[C@@H]([C@H](C)CCC(=O)O)CC[C@H]3[C@H]12 [methylated UDCA, 3α-hydroxy,7β-methoxy-5β-cholan-24-oic acid]	~70%	an increase in cytotoxicity was evident	remained largely unchanged	tended to increase cell viability	decreased viability	slightly better protection	effective at rescuing cell viability	effective at inhibiting TGF-β1-induced reduction in MTT metabolism	prevents TGF-β1-induced loss of cell viability	prevents DCA-induced cytotoxicity
